“Also recorded” adds a separate entry of the source.
Tests used:
[1] = molecular target: modified ArubRXFP/LGR3 (N-terminal region with the predicted internal signal peptide replaced by the prolactin precursor signal peptide) (Asterias rubens)
[2] = molecular target: Asterias rubens relaxin family peptide receptor/leucine-rich repeat G protein-coupled receptor 3 (isoform X2) (Asterias rubens)
[3] = molecular target: Asterias rubens relaxin family peptide receptor/leucine-rich repeat G protein-coupled receptor 3 (isoform X2) (Asterias rubens); remark: listed apart in the source
modified ArubRXFP/LGR3 = assay: Luminescence (GFP-aequorin G5A, GqS5) assay in CHO-K1 cells transfected with modified ArubRXFP/LGR3; assay type: cell-based, A. rubens; conditions: Fig. 6 C, D
Text: Thus, modified ArubRXFP/LGR3 was similar in this respect to the modified AsolRXFP/LGR3 protein (Fig. 5).
A. rubens RGP1 and RGP2 (ArubRGP1, ArubRGP2) were custom synthesized with a purity of > 95%, as reported previously. Two genes encoding relaxin receptor-related proteins were identified in A. rubens and, informed by phylogenetic analysis, these were named ArubRXFP/LGR3 and ArubLGR4. Then cDNAs encoding these proteins were custom synthesized with the inclusion of a 5′ partial Kozak translation initiation sequence (GCCACC) and incorporated into the mammalian expression vector pcDNA 3.1( +) (Genscript, Hong Kong) (Additional file 18: Dataset S11). […]
(§1) AruRGP1 and AruRGP2 were tested as ligands for the A. rubens receptors using luminescence-based assays, which have been described previously. […] A FLUOstar Omega Plate Reader (BMG LABTECH; FLUOstar Omega Series multi-mode microplate reader) with injectors was used to sequentially add transfected CHO-K1 cells to each test well of the microtiter plate and luminescence was recorded over a 35-s period. Luminescence data were integrated over the 35 s measurement period and the mean of the triplicate measurements was calculated. Responses were normalized to the maximum response obtained in each experiment (100% activation) and to luminescence measured with the vehicle media (0% activation) (Additional file 19: Dataset S12). […]

ArubRXFP/LGR3 = assay: Luminescence (GFP-aequorin G5A, GqS5) assay in CHO-K1 cells transfected with ArubRXFP/LGR3; assay type: cell-based, A. rubens; conditions: for luminescence response at 10^−5 M versus background: basal media as background; for EC50: 10^−14 to 10^−5 M, 35 s, three independent transfections, four-parameter fit, read-out: EC50 for induced luminescence; for luminescence response versus BSA control: 10–5 M, 30 s, one-way ANOVA with Bonferroni (***p < 0.001, *p < 0.1), Fig. S6; for dose-dependent triggering of luminescence: Fig. 6 A, B
Description: (§2) ArubRGP1 and ArubRGP2 were tested as ligands for ArubRXFP/LGR3 (isoform X2; XP_033631990.1) and ArubLGR4 (isoform X3; XP_033635731.1) by co-transfection of CHO-K1 cells stably expressing the green fluorescent protein (GFP) – apoaequorin construct G5A [25] with the chimeric G-protein Gqs5, which is a Gq-type protein modified to incorporate Gs-type sequences that enable it to interact with GPCRs that preferentially couple to Gs-type G-proteins. Synthetic ArubRGP1 or ArubRGP2 were initially tested at a concentration of 10^−5 M, comparing with luminescence measured in transfected cells incubated in basal media without the addition of ArubRGP1 or ArubRGP2.
(§3) A. rubens RGP1 and RGP2 (ArubRGP1, ArubRGP2) were custom synthesized with a purity of > 95%, as reported previously. Two genes encoding relaxin receptor-related proteins were identified in A. rubens and, informed by phylogenetic analysis, these were named ArubRXFP/LGR3 and ArubLGR4. Then cDNAs encoding these proteins were custom synthesized with the inclusion of a 5′ partial Kozak translation initiation sequence (GCCACC) and incorporated into the mammalian expression vector pcDNA 3.1( +) (Genscript, Hong Kong) (Additional file 18: Dataset S11). Likewise, a cDNA encoding an N-terminally modified form of ArubRXFP/LGR3 incorporating an N-terminal signal peptide from the bovine prolactin precursor was also synthesized (with codon optimization for mammalian expression) (Genewiz, Takeley, UK) and this is referred to henceforth as ArubRXFP/LGR3(modified) (Additional file 18: Dataset S11). Chinese hamster ovary cells (CHO-K1) stably expressing the calcium-sensitive aequorin fusion protein G5A were used as an expression system. This cell line was supplied by Prof. Gaspar Jékely (University of Heidelberg, Germany) and tested negative for mycoplasma contamination using a MycoAlert PLUS kit (Lonza, Switzerland). The CHO-K1 cells were cultured in a culture medium comprising DMEM/F12, 10% fetal bovine serum, antibiotic–antimycotic, and 20 µg/mol Geneticin G418 sulfate (all purchased from Thermo Fisher scientific, Oxford, UK; cat no. 11039047, 10,082,147, 15,240,062, and 10,131,035, respectively.) When the cells reached 80% confluency, they were co-transfected with plasmids containing cDNAs encoding ArubRXFP/LGR3, ArubRXFP/LGR3(modified), or ArubLGR4 and a plasmid encoding the chimeric G-protein GqS5 (Addgene, Watertown USA), which enables GPCRs that preferentially couple to Gq-type or Gs-type proteins to signal via the phospholipase-C signaling pathway.
AruRGP1 and AruRGP2 were tested as ligands for the A. rubens receptors using luminescence-based assays, which have been described previously. Thus, 48 h after transfection, cells were detached by using PBS buffer (pH7.4; Thermofisher Scientific, Oxford, UK; cat no.10010023) supplemented with a final concentration of 5 mM EDTA pH8.0 (Thermo Fisher Scientific, Oxford, UK; cat no.15575020). Cells were then washed with DMEM/F12 buffer and then incubated with […] coelenterazine-H (Thermo Fisher Scientific, Oxford, UK; cat no. C6780) at room temperature with stirring for 3 h. ArubRGP1 or ArubRGP2 were prepared at concentrations ranging from 10^−14 to 10^−5 M and then were pipetted into 96-well plates (Costar Assay microplate, REF: 3903 or Falcon 96 well microplate, Code: 353,377). A FLUOstar Omega Plate Reader (BMG LABTECH; FLUOstar Omega Series multi-mode microplate reader) with injectors was used to sequentially add transfected CHO-K1 cells to each test well of the microtiter plate and luminescence was recorded over a 35-s period. Luminescence data were integrated over the 35 s measurement period and the mean of the triplicate measurements was calculated. Responses were normalized to the maximum response obtained in each experiment (100% activation) and to luminescence measured with the vehicle media (0% activation) (Additional file 19: Dataset S12). […]

[4] = test system: CHO-K1 cells transfected with an empty pcDNA3.1 + vector; assay: Luminescence (GFP-aequorin G5A, GqS5) assay in CHO-K1 cells transfected with empty pcDNA3.1 vector; assay type: cell-based, Chinese hamster; conditions: 10^−14 to 10^−5 M, Fig. 6 G, H
Description: as §2, with “ArubRGP2. […]” for “ArubRGP2.”
as §1

ArubLGR4 = assay: Luminescence (GFP-aequorin G5A, GqS5) assay in CHO-K1 cells transfected with ArubLGR4; assay type: cell-based, A. rubens; conditions: for luminescence versus basal media: 10^−5 M; for luminescence response: 10^−14 to 10^−5 M, Fig. 6 E, F
Description: as §2
as §3, with “The CHO-K1 cells were cultured in a culture medium comprising DMEM/F12, 10% fetal bovine serum, antibiotic–antimycotic, and 20 µg/mol Geneticin G418 sulfate (all purchased from Thermo Fisher scientific, Oxford, UK; cat no. 11039047, 10,082,147, 15,240,062, and 10,131,035, respectively.) When the cells reached 80% confluency, they were co-transfected with plasmids containing cDNAs encoding ArubRXFP/LGR3, ArubRXFP/LGR3(modified), or ArubLGR4 and a plasmid encoding the chimeric G-protein GqS5 (Addgene, Watertown USA), which enables GPCRs that preferentially couple to Gq-type or Gs-type proteins to signal via the phospholipase-C signaling pathway.” left out
as §1

[5] = molecular target: Acanthaster cf. solaris relaxin family peptide receptor/leucine-rich repeat G protein-coupled receptor 3, N-terminally modified (prolactin signal peptide, FLAG tag) (Acanthaster cf. solaris)

| Substance | EC50 of peptide-induced luminescence (GFP-apoaequorin G5A, chimeric G-protein GqS5) in CHO-K1 cells transfected with modified ArubRXFP/LGR3 [1] [nM] | EC50 of peptide-induced luminescence (GFP-apoaequorin G5A, chimeric G-protein GqS5) in CHO-K1 cells transfected with ArubRXFP/LGR3 [2] [nM] | EC50 of peptide-induced luminescence (GFP-apoaequorin G5A, chimeric G-protein GqS5) in CHO-K1 cells transfected with ArubRXFP/LGR3, 10^-14 to 10^-5 M [3] [nM] | dose-dependent triggering of luminescence (modified ArubRXFP/LGR3) | luminescence response at 10^−5 M versus background (ArubRXFP/LGR3) | EC50 (ArubRXFP/LGR3) [nM] | luminescence response versus BSA control (ArubRXFP/LGR3) | dose-dependent triggering of luminescence (ArubRXFP/LGR3) | luminescence response [4] | luminescence versus basal media (ArubLGR4) | luminescence response (ArubLGR4) | percentage of forskolin-induced cAMP levels (CRE reporter) in CHO-AsolRXFP/LGR3 cells at 10 µM AsolRGP2; no dose-response curve could be fitted (% forskolin response) [5] |
| --- | --- | --- | --- | --- | --- | --- | --- | --- | --- | --- | --- | --- |
| Asterias rubens relaxin-like gonad-stimulating peptide 1 (ligand) | 110 | 25 | 22.5 |  |  |  |  |  |  |  |  |  |
| Asterias rubens Relaxin-like gonad-stimulating peptide 2 [ArubRGP2] |  |  |  | trigger dose-dependent luminescence | approximately twice the background luminescence | 383 | significantly higher | trigger dose-dependent luminescence | no response; also recorded: do not trigger luminescence | not significantly different | no response; also recorded: do not trigger luminescence |  |
| Acanthaster cf. solaris relaxin-like gonad-stimulating peptide 2 (ligand) |  |  |  |  |  |  |  |  |  |  |  | 12.2 |
| Asterias rubens Relaxin-like gonad-stimulating peptide 1 [ArubRGP1] |  |  |  | trigger dose-dependent luminescence | approximately twice the background luminescence | 22.5 | significantly higher | trigger dose-dependent luminescence | no response; also recorded: do not trigger luminescence | not significantly different | no response; also recorded: do not trigger luminescence |  |
